Laboratory results: patent US5486595A, “Tumor necrosis factor inhibitors” (Centecor, Inc., priority 1994, dated 1996)
Where a SMILES comes first, the peptide text is derived from it.

What follows are compounds tested against T1, human TNFα (Homo sapiens, UniProt P01375) (assay: p55 Receptor/IgG Fusion Protein Binding Assay (inhibition of TNFα capture by p55-Ig coated plate)). Conditions: peptide 1 mM; TNFα 25 ng/ml; read-out: inhibition of binding of TNFα to p55TNFr-IgG chimeric construct.
T1 construct: purchased Biosource, Camarillo, Calif
Experimental: This assay was designed to identify peptides which bind to human TNFα and thereby prevent the capture of the TNFα by a microtiter plate coated with p55-Ig fusion protein. A constant concentration of human TNFα is preincubated with the test peptide and then incubated on the p55-Ig coated microtiter wells. Bound TNFα is detected using a specific antisera and an alkaline phosphatase-conjugated probe.
A 96-well, U-bottom polyvinylchloride microtiter plate was coated with 50 μl/well of p55-Ig fusion protein at 5 μg/ml in 0.01M sodium phosphate, 0.15M sodium chloride (PBS) by incubation overnight at 4° C. or 2 hours at 37° C. The fusion protein, which consists of a p55 TNF receptor protein portion and an IgG portion, can be produced as disclosed in U.S. application Ser. No. 08/010,406 filed Jan. 29, 1993 which is incorporated herein by reference. The plate was washed three times with 0.05% Tween-20 in PBS, then blocked, by adding 150 μl/well of assay buffer (10 mM N-2-hydroxyethylpiperazine-N'-[…] (HEPES) pH 7.2, containing 0.1% porcine gelatin, 0.1% Tween-80, and 0.01% sodium azide) and continuing incubation for 1 hour at 37° C. or at 4° C. for 1-7 days.
Lyophilized peptides to be tested were weighed in tared 12×75 mm polystyrene tubes and reconstituted to a concentration of 1.2 mM with assay buffer. Each suspension was sonicated in a water bath for 1-5 minutes and vortexed 15-30 seconds to disperse large particles. Serial dilutions of each peptide suspension were prepared using assay buffer in a 96-well polystyrene microtiter plate. Additional wells received Fab fragment of the mouse/human monoclonal anti-human TNFα antibody cA2 (positive control) or assay buffer (negative control). […] The polystyrene dilution plate was then sealed and incubated 1 hour at room temperature on an orbital mixer set at moderate speed.
Following the sample preincubation, blocker was discarded from the p55-Ig coated plate and blotted dry. Aliquots (50 μl) of each peptide or control were transferred into duplicate wells on the p55-Ig coated plate which was then sealed and incubated i hour at 37° C. Duplicate wells containing only assay buffer were included as a plate blank. After incubation the p55-Ig plate was washed three times with 0.05% Tween-20 in PBS.
To detect TNFα captured by the p55-Ig plate, all wells were incubated in succession with polyclonal rabbit anti-human TNFα (Genzyme, Boston, Mass.; 1:500 in assay buffer, 50 μl/well), biotinylated goat anti-rabbit Ig (H&L) (Vector Laboratories, Burlingame, Calif.; 1 μg/ml in assay buffer, 50 μl/well) and streptavidin-alkaline phosphatase conjugate (Pierce, Rockford, Ill.; 1 μg/ml in assay buffer, 50 μl/well). All incubations were for 1 hour at 37° C. and after each incubation the plate was washed three times with 0.05% Tween-20 in PBS. Fifty microliters of alkaline phosphatase substrate solution (alkaline buffer (Sigma, St. Louis, Mo.) diluted 1:500 in deionized water plus one 5 mg tablet of p-nitrophenyl phosphate (Sigma, St. Louis, Mo.) per 5 ml of diluted buffer) was added to all wells and incubation continued for 20 minutes at room temperature. Color development was stopped by adding to all wells 50 μl of 3N sodium hydroxide. The optical density (OD) at 405 nm was measured on a microtiter plate reader (Molecular Devices Vmax plate reader), with the plate blank wells subtracted as background. The activity of each peptide was then expressed as the percent inhibition of TNFα capture by the p55-Ig plate, relative to the amount of TNFα captured in wells containing only assay buffer (negative control), as follows: % inhibition=100-((mean OD peptide/mean OD negative control)×100).
The inhibition of binding of TNFα to p55TNFr-IgG chimeric construct was performed as described above using several embodiments of the invention. The peptides were tested at a concentration of 1 mM.

T1 sequence (P01375 77-233 limits assumed): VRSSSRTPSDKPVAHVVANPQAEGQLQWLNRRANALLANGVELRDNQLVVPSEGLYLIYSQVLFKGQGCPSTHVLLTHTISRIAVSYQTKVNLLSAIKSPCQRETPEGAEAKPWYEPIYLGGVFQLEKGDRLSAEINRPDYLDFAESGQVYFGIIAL

inhibition at 1000 µM | Compound
72% | CSCC[C@H](NC(=O)[C@H](CCC(N)=O)NC(=O)[C@H](C)NC(=O)[C@@H](NC(=O)[C@H](CCC(N)=O)NC(=O)[C@H](CC(=O)O)NC(=O)[C@H](Cc1ccc(O)cc1)NC(=O)[C@H](Cc1ccc(O)cc1)NC(=O)[C@H](CCC(=O)O)NC(=O)[C@H](CCCNC(=N)N)NC(=O)[C@H](CC(C)C)NC(=O)[C@H](CCCNC(=N)N)NC(=O)[C@H](C)NC(=O)[C@@H](NC(=O)[C@@H](N)CO)[C@@H](C)O)[C@@H](C)O)C(N)=O [SEQ ID NO:28] (H-STARLREYYDQTAQM-NH2)
53% | CSCC[C@H](NC(=O)[C@H](CCC(N)=O)NC(=O)[C@H](C)NC(=O)[C@@H](NC(=O)[C@H](CCC(N)=O)NC(=O)[C@H](CC(=O)O)NC(=O)[C@H](Cc1ccc(O)cc1)NC(=O)[C@H](Cc1ccc(O)cc1)NC(=O)[C@H](CCC(=O)O)NC(=O)[C@H](CCCNC(=N)N)NC(=O)[C@H](CC(C)C)NC(=O)[C@@H](N)CCCNC(=N)N)[C@@H](C)O)C(=O)N[C@@H](C)C(=O)N[C@@H](C)C(=O)N[C@@H](CO)C(N)=O [SEQ ID NO:29] (H-RLREYYDQTAQMAAS-NH2)

The next lines start with the compound.

Compound | inhibition at 1000 µM
CC[C@H](C)[C@H](NC(=O)[C@H](CCC(N)=O)NC(=O)[C@@H]1CCCN1)C(=O)N[C@@H](CCC(=O)O)C(=O)N[C@@H](CC(N)=O)C(=O)N[C@H](C(=O)N[C@@H](CCCCN)C(=O)NCC(=O)N[C@H](C(=O)N[C@@H](CCC(=O)O)C(=O)N[C@@H](CC(N)=O)C(=O)N[C@@H](CO)C(=O)NCC(=O)N[C@H](C(=O)N[C@H](C(N)=O)[C@@H](C)O)[C@@H](C)O)[C@@H](C)O)C(C)C [SEQ ID NO:23, Prolyl-glutaminyl-isoleucyl-glutamyl-asparaginyl-valyl-lysyl-glycyl-threonyl-glutamyl-asparaginyl-seryl-glycyl-threonyl-threonine Amide] (H-PQIENVKGTENSGTT-NH2) | 52%
CC(C)C[C@H](NC(=O)[C@H](C)NC(=O)[C@H](CC(C)C)NC(=O)[C@H](CO)NC(=O)[C@H](C)NC(=O)[C@H](CC(N)=O)NC(=O)[C@H](Cc1ccccc1)NC(=O)[C@H](C)NC(=O)[C@H](CCC(N)=O)NC(=O)[C@H](Cc1ccccc1)NC(=O)[C@H](CC(C)C)NC(=O)[C@H](CC(N)=O)NC(=O)[C@H](CCC(=O)O)NC(=O)[C@@H](N)CO)C(=O)N[C@@H](CC(N)=O)C(N)=O [SEQ ID NO:24] (H-SENLFQAFNASLALN-NH2) | 21%
CC(C)C[C@H](NC(=O)[C@H](CCCNC(=N)N)NC(=O)[C@H](C)NC(=O)[C@@H](NC(=O)[C@H](CO)NC(=O)CNC(=O)[C@@H]1CCCN1C(=O)[C@H](CCC(=O)O)NC(=O)[C@@H]1CCCN1C(=O)[C@H](C)NC(=O)[C@H](Cc1ccc(O)cc1)NC(=O)[C@@H]1CCCN1C(=O)[C@@H](NC(=O)[C@@H](N)Cc1ccccc1)[C@@H](C)O)[C@@H](C)O)C(=O)N[C@@H](CCCNC(=N)N)C(N)=O [SEQ ID NO:25] (H-FTPYAPEPGSTARLR-NH2) | 69%
CC(C)C[C@H](NC(=O)[C@H](CCCNC(=N)N)NC(=O)[C@H](C)NC(=O)[C@@H](NC(=O)[C@H](CO)NC(=O)CNC(=O)[C@@H]1CCCN1C(=O)[C@H](CCC(=O)O)NC(=O)[C@@H]1CCCN1C(=O)[C@H](C)NC(=O)[C@@H](N)Cc1ccc(O)cc1)[C@@H](C)O)C(=O)N[C@@H](CCCNC(=N)N)C(=O)N[C@@H](CCC(=O)O)C(=O)N[C@@H](Cc1ccc(O)cc1)C(=O)N[C@@H](Cc1ccc(O)cc1)C(N)=O [SEQ ID NO:26] (H-YAPEPGSTARLREYY-NH2) | 71%
CC(C)C[C@H](NC(=O)[C@H](CCCNC(=N)N)NC(=O)[C@H](C)NC(=O)[C@@H](NC(=O)[C@H](CO)NC(=O)CNC(=O)[C@@H]1CCCN1C(=O)[C@@H](N)CCC(=O)O)[C@@H](C)O)C(=O)N[C@@H](CCCNC(=N)N)C(=O)N[C@@H](CCC(=O)O)C(=O)N[C@@H](Cc1ccc(O)cc1)C(=O)N[C@@H](Cc1ccc(O)cc1)C(=O)N[C@@H](CC(=O)O)C(=O)N[C@@H](CCC(N)=O)C(=O)N[C@H](C(N)=O)[C@@H](C)O [SEQ ID NO:27] (H-EPGSTARLREYYDQT-NH2) | 78%
